Test results reported in patent US20240197760A1, “ACTIVATORS OF INTEGRATED STRESS RESPONSE PATHWAY FOR PROTECTION AGAINST FERROPTOSIS” (Burke Neurological Institute, priority 2021, published 2024).
“Also recorded” adds a separate entry of the source.

Tests used:
MCAO mice = assay: Filament MCAO model of transient ischemic stroke, sensory and motor function; assay type: in vivo, mouse; conditions: 10 mg/Kg i.p. from 24 h after MCAO, every day for 4 weeks
Procedure: To assess the effect of 2-DG on the Bdnf gene expression, mice were injected with either saline or 2-DG (10 mg/Kg) intraperitoneally for 6 h and then mice were euthanized properly, and hippocampi were dissected out from mice brain. In order to assess functional improvement with 2-DG treatment after ischemic stroke, mice were injected with 2-DG (10 mg/Kg) intraperitoneally 24 h after induction of the stroke and then every day for four weeks. For assessing functional improvement with 2-DG treatment after hemorrhagic stroke, mice were injected with 2-DG (10 mg/Kg) intraperitoneally 24 h after induction of the stroke and then every day for three weeks. The ischemic stroke was induced using filament MCAO method as described before (Alim et al., 2019). In brief, all surgeries were conducted in sterile conditions. Male mice were anesthetized with isoflurane (5% induction, and 2% maintenance). A 2 cm incision was opened in the middle of the anterior neck. The right common carotid was temporarily ligated with 6-0 silk (Ethicon Inc.). Right unilateral MCAO was accomplished by inserting a Silicon rubber-coated monofilament (Doccol Corporation) into the internal carotid artery via the external carotid artery stump. Adequacy of MCAO was confirmed by monitoring cortical blood flow at the onset of the occlusion with a laser Doppler flowmetry probe affixed to the skull (Periflux System 5010; Perimed, Sweden). Animals were excluded if mean intra-ischemic laser Doppler flowmetry was >30% pre-ischemic baseline. […] The integrated sensorimotor function in both stimulation of vibrissae (sensory neglect) and rearing (motor response) was assessed through the corner turn test as described previously (Karuppagounder et al., 2016). […] The direction (left or right) in which the mouse turned around was recorded for each trial. […] The time from which the tape was applied to when the mouse successfully removed it was recorded for each paw. […] The latency to reach the ground were recorded. […]

primary neurons = assay: High throughput RNA sequencing of primary neurons; assay type: cell-based, mouse
Procedure: Primary cortical neurons were treated with 2-DG (1 mM and 10 mM) for 6 h from three independent cultures and RNA was isolated from each sample using a NucleoSpin RNA II Kit (Clontech, Catalog number-740955-250). For each RNA sample, RNA quality was initially quantified using the RNA Integrity Number (RIN) on an Agilent Bioanalyzer (Agilent Genomics). RNA-sequencing was carried out for the RNAs with by the UCLA Neuroscience Genomics Core. In brief, cDNA was generated using Ovation® RNA-Seq System V2 (NuGEN) followed by the library preparation using Illumina's TruSeq Stranded RNA (100 ng)+RiboZero Gold. The libraries were pooled and sequenced to generate 75 bp paired end reads on HiSeqTM4000 system (Illumina). Minimum of […] reads were obtained. Reads were aligned to the mouse mm10 reference genome using the STAR (ver 2.4.0) spliced read aligner (Dobin et al., 2013). Uniquely aligned read percentage was […](SD). Various quality matrix was generated to use high quality data for the analysis. Read counts for mouse […] genes were generated by HT-seq 0.6.1 (Anders et al., 2015). Genes with at least 5 read events at least half of samples were permitted into the dataset, for a total of 15,787 genes. Raw counts were normalized by trimmed mean of M values (TMM). Differentially expressed genes (DEG) were analyzed using an EdgeR bioconductor R (Robinson et al., 2010). False discovery rate less than 0.1 is used to define differentially expressed genes. Gene Set Enrichment Analysis (GSEA) was performed with gene lists sorted by directional p-Values from differential expression analysis. Raw and processed RNAseq data are deposited to Gene Expression Omnibus (GEO #).

human Bdnf promoters = assay: Human Bdnf promoter luciferase reporters in HT22 cells; assay type: cell-based, mouse; conditions: 10 mM, 6 h
[1] = test system: triple transgenic model of AD; conditions: cited from earlier work
[2] = vs saline significant on days 21 and 28

OC[C@H]1OC(O)C[C@@H](O)[C@@H]1O (stereo partly drawn) [2-DG, (4R,5S,6R)-6-(hydroxymethyl)oxane-2,4,5-triol]
pole test after ischemic stroke (MCAO mice; vs saline significant on day 21): significant improvement; also recorded: significant difference | corner test after ischemic stroke (MCAO mice; [2]): significant improvement; also recorded: significant difference | tape removal test after ischemic stroke (MCAO mice; [2]): significant improvement; also recorded: significant difference | genes related to the unfolded protein response (primary neurons; 1 mM and 10 mM, 6 h): dose dependent increase | cellular component enrichment analysis (primary neurons; 1 mM or 10 mM, 6 h): significant enrichment of genes related to endoplasmic reticulum | gene set enrichment analysis: gene signature related to unfolded protein response (UPR) (primary neurons; 1 mM or 10 mM, 6 h): maximal upregulation | plasticity gene program in RNA sequencing (primary neurons; 1 mM or 10 mM, 6 h): upregulation of a broad plasticity gene program | mitochondrial gene signature in RNA sequencing (primary neurons; 2-DG treatment, primary neurons): didn't show any significant change | promoter activity of nine human Bdnf promoters (human Bdnf promoters): all Bdnf promoters except Bdnf promoter VI were significantly upregulated | brain energy metabolism and amyloid pathology [1]: improve brain energy metabolism and amyloid pathology
